# Data taken from publication PMC11822212, “High-throughput screening identifies Aurora kinase B as a critical therapeutic target for Merkel cell carcinoma” (Nature Communications, 2025).
# Counter-ions that a name gives are not always drawn.
# How the values were obtained:
# [1] = system: VP-MCC cell lines (WAGA, MKL-1, MKL-2); assay: qHTS cell viability, VP-MCC cell lines as a group (mean AUC, VP.MCC.avg); format: cell-based, human; conditions: MIPE library, sheet S2E; for Control-VP-MCC: Control AUC minus VP-MCC AUC (therapeutic window); for VP-MCC_Avg_AUC: mean AUC of VP-MCC cell lines
# [2] = system: six MCC cell lines and four control cell lines; assay: qHTS cell viability, all 10 cell lines screened; format: cell-based; conditions: MIPE library, Control AUC minus MCC AUC (therapeutic window), sheet S2E
# [3] = system: MCC cell lines (WAGA, MKL-1, MKL-2, MCC13, MCC26, UISO); assay: qHTS cell viability, all six MCC cell lines as a group (mean AUC, MCC.avg); format: cell-based, human; conditions: MIPE library, mean AUC of six MCC cell lines, sheet S2E
# [4] = system: VN-MCC cell lines (MCC13, MCC26, UISO); assay: qHTS cell viability, VN-MCC cell lines as a group (mean AUC, VN.MCC.avg); format: cell-based, human; conditions: MIPE library, sheet S2E; for Control-VN-MCC: Control AUC minus VN-MCC AUC (therapeutic window); for VN-MCC_Avg_AUC: mean AUC of VN-MCC cell lines
# MKL-1 cells (VP-MCC) = assay: qHTS cell viability (CellTiter-Glo, 72 h; primary and follow-up small molecule screen); format: cell-based, human; conditions: for MKL1_AUC: MIPE library, 11-point DRC, sheet S2E; for Area under the dose-response curve (AUC) MKL-1 Replicate 1 / Area under the dose-response curve (AUC) MKL-1 Replicate 2 / Area under the dose-response curve (AUC) MKL-1 Replicate 3: follow-up screen
# MCC26 cells (VN-MCC) = assay: as above; format: cell-based, human; conditions: for MCC26_AUC: MIPE library, 11-point DRC, sheet S2E; for Area under the dose-response curve (AUC) MCC26 Replicate 1 / Area under the dose-response curve (AUC) MCC26 Replicate 2 / Area under the dose-response curve (AUC) MCC26 Replicate 3: follow-up screen
# [5] = system: control cell lines (HACAT, HEK293T, CRL-7250, NIH-3T3); assay: qHTS cell viability, control cell lines as a group (mean AUC, Control.avg); format: cell-based; conditions: MIPE library, mean AUC of control cell lines, sheet S2E
# MCC13 cells (VN-MCC) = assay: qHTS cell viability (CellTiter-Glo, 72 h; primary and follow-up small molecule screen); format: cell-based, human; conditions: for MCC13_AUC: MIPE library, 11-point DRC, sheet S2E; for Area under the dose-response curve (AUC) MCC13 Replicate 1 / Area under the dose-response curve (AUC) MCC13 Replicate 2 / Area under the dose-response curve (AUC) MCC13 Replicate 3: follow-up screen
# HEK293T cells = assay: qHTS cell viability (CellTiter-Glo, 72 h; primary screen), control cell line; format: cell-based, human; conditions: MIPE library, 11-point DRC, control cell line, sheet S2E
# NIH-3T3 cells = assay: as above; format: cell-based, mouse; conditions: MIPE library, 11-point DRC, control cell line, sheet S2E
# MKL-2 cells (VP-MCC) = assay: qHTS cell viability (CellTiter-Glo, 72 h; primary and follow-up small molecule screen); format: cell-based, human; conditions: for MKL2_AUC: MIPE library, 11-point DRC, sheet S2E; for Area under the dose-response curve (AUC) MKL-2 Replicate 1 / Area under the dose-response curve (AUC) MKL-2 Replicate 2 / Area under the dose-response curve (AUC) MKL-2 Replicate 3: follow-up screen
# CRL-7250 cells = assay: qHTS cell viability (CellTiter-Glo, 72 h; primary screen), control cell line; format: cell-based; conditions: MIPE library, 11-point DRC, control cell line, sheet S2E
# WAGA cells (VP-MCC) = assay: qHTS cell viability (CellTiter-Glo, 72 h; primary and follow-up small molecule screen); format: cell-based, human; conditions: for WAGA_AUC: MIPE library, 11-point DRC, sheet S2E; for Area under the dose-response curve (AUC) WAGA Replicate 1 / Area under the dose-response curve (AUC) WAGA Replicate 2 / Area under the dose-response curve (AUC) WAGA Replicate 3: follow-up screen
# UISO cells (VN-MCC) = assay: as above; format: cell-based, human; conditions: for UISO_AUC: MIPE library, 11-point DRC, sheet S2E; for Area under the dose-response curve (AUC) UISO Replicate 1 / Area under the dose-response curve (AUC) UISO Replicate 2 / Area under the dose-response curve (AUC) UISO Replicate 3: follow-up screen
# HACAT cells = assay: qHTS cell viability (CellTiter-Glo, 72 h; primary screen), control cell line; format: cell-based, human; conditions: MIPE library, 11-point DRC, control cell line, sheet S2E
Compound,Control-VP-MCC [1],VP-MCC_Avg_AUC [1],Control-MCC [2],MCC_Avg_AUC [3],Control-VN-MCC [4],VN-MCC_Avg_AUC [4],MKL1_AUC (MKL-1 cells (VP-MCC)),Area under the dose-response curve (AUC) MKL-1 Replicate 1 (MKL-1 cells (VP-MCC)),Area under the dose-response curve (AUC) MKL-1 Replicate 2 (MKL-1 cells (VP-MCC)),Area under the dose-response curve (AUC) MKL-1 Replicate 3 (MKL-1 cells (VP-MCC)),MCC26_AUC (MCC26 cells (VN-MCC)),Area under the dose-response curve (AUC) MCC26 Replicate 1 (MCC26 cells (VN-MCC)),Area under the dose-response curve (AUC) MCC26 Replicate 2 (MCC26 cells (VN-MCC)),Area under the dose-response curve (AUC) MCC26 Replicate 3 (MCC26 cells (VN-MCC)),Control_Avg_AUC [5],MCC13_AUC (MCC13 cells (VN-MCC)),Area under the dose-response curve (AUC) MCC13 Replicate 1 (MCC13 cells (VN-MCC)),Area under the dose-response curve (AUC) MCC13 Replicate 2 (MCC13 cells (VN-MCC)),Area under the dose-response curve (AUC) MCC13 Replicate 3 (MCC13 cells (VN-MCC)),HEK293T_AUC (HEK293T cells),also measured
O=c1cc(-c2ccc(O)cc2)oc2cc(O)cc(O)c12 [Apigenin],92.024,368.15,22.9804,437.193,-46.0631,506.237,377.491,510.1,521.0,502.5,531.61,480.1,461.0,496.4,460.174,501.623,539.3,539.6,514.9,459.794,NIH3T3_AUC (NIH-3T3 cells): 470.997; MKL2_AUC (MKL-2 cells (VP-MCC)): 357.96; Area under the dose-response curve (AUC) MKL-2 Replicate 1 (MKL-2 cells (VP-MCC)): 530.0; Area under the dose-response curve (AUC) MKL-2 Replicate 2 (MKL-2 cells (VP-MCC)): 507.8; Area under the dose-response curve (AUC) MKL-2 Replicate 3 (MKL-2 cells (VP-MCC)): 497.7; CRL7250_AUC (CRL-7250 cells): 438.96; WAGA_AUC (WAGA cells (VP-MCC)): 368.999; Area under the dose-response curve (AUC) WAGA Replicate 1 (WAGA cells (VP-MCC)): 549.1; Area under the dose-response curve (AUC) WAGA Replicate 2 (WAGA cells (VP-MCC)): 497.7; Area under the dose-response curve (AUC) WAGA Replicate 3 (WAGA cells (VP-MCC)): 481.5; UISO_AUC (UISO cells (VN-MCC)): 485.478; Area under the dose-response curve (AUC) UISO Replicate 1 (UISO cells (VN-MCC)): 472.2; Area under the dose-response curve (AUC) UISO Replicate 2 (UISO cells (VN-MCC)): 489.3; Area under the dose-response curve (AUC) UISO Replicate 3 (UISO cells (VN-MCC)): 503.1; HACAT_AUC (HACAT cells): 470.945
CN1CCCC(n2nc(Cc3ccc(Cl)cc3)c3ccccc3c2=O)CC1 (stereo not shown) [Azelastine hydrochloride],149.127,310.335,86.1174,373.345,23.1078,436.354,341.965,494.5,511.5,475.2,431.003,450.4,432.6,475.6,459.462,451.766,500.3,476.4,479.3,458.798,NIH3T3_AUC (NIH-3T3 cells): 471.996; MKL2_AUC (MKL-2 cells (VP-MCC)): 320.643; Area under the dose-response curve (AUC) MKL-2 Replicate 1 (MKL-2 cells (VP-MCC)): 463.4; Area under the dose-response curve (AUC) MKL-2 Replicate 2 (MKL-2 cells (VP-MCC)): 469.5; Area under the dose-response curve (AUC) MKL-2 Replicate 3 (MKL-2 cells (VP-MCC)): 473.5; CRL7250_AUC (CRL-7250 cells): 443.828; WAGA_AUC (WAGA cells (VP-MCC)): 268.398; Area under the dose-response curve (AUC) WAGA Replicate 1 (WAGA cells (VP-MCC)): 515.6; Area under the dose-response curve (AUC) WAGA Replicate 2 (WAGA cells (VP-MCC)): 481.7; Area under the dose-response curve (AUC) WAGA Replicate 3 (WAGA cells (VP-MCC)): 478.9; UISO_AUC (UISO cells (VN-MCC)): 426.293; Area under the dose-response curve (AUC) UISO Replicate 1 (UISO cells (VN-MCC)): 472.1; Area under the dose-response curve (AUC) UISO Replicate 2 (UISO cells (VN-MCC)): 488.6; Area under the dose-response curve (AUC) UISO Replicate 3 (UISO cells (VN-MCC)): 481.1; HACAT_AUC (HACAT cells): 463.226
